Experimental data taken from ChEMBL document CHEMBL5316330, “Design of an Ultralow Molecular Weight Heparin That Resists Heparanase Biodegradation” (J Med Chem, 2023).
Activity calls are given as the source filed them. No cut-off for these calls is given here.

Columns and labels:
Mus musculus [1] = experiment: Anticoagulant activity in C57BL/6 mouse model of non-occlusive venous thrombosis assessed as average IVC weight at 12 ug/g, sc treated for 1 hr prior to electrolytic injury and 24 hrs after injury (reference value: 31.5 +/- 2.3 mg); format: functional; conditions: dose 12 µg/g, time 25 hrs
Mus musculus [2] = experiment: Anticoagulant activity in C57BL/6 mouse model of non-occlusive venous thrombosis assessed as average IVC weight at 4 ug/g, sc treated for 4 hrs prior to electrolytic injury and 24 hrs after injury (reference value: 31.5 +/- 2.3 mg); format: functional; conditions: dose 4 µg/g, time 28 hrs
[3] = Stability of compound assessed as heparanase-mediated compound degradation by measuring retention time at 20 ug incubated overnight by LC-MS analysis (reference value: 10 mins); format: physicochemical; conditions: dose 20 µg
Coagulation factor X [4] = target: T1, Coagulation factor X (Homo sapiens, UniProt P00742); experiment: Potency index, ratio of Enoxaparin IC50 to test compound IC50 for factor Xa (unknown origin) by ACTICHROME heparin assay
Mus musculus [5] = experiment: Anticoagulant activity in C57BL/6 mouse model of non-occlusive venous thrombosis assessed as average bleeding time at 12 ug/g, sc treated for 1 hr prior to electrolytic injury and 24 hrs after injury (reference value: 81 +/- 3 mg); format: functional; conditions: dose 12 µg/g, time 25 hrs
Mus musculus [6] = experiment: Anticoagulant activity in C57BL/6 mouse model of non-occlusive venous thrombosis assessed as inhibition of factor Xa in plasma at 12 ug/g, sc treated for 1 hr prior to electrolytic injury and 24 hrs after injury; format: functional; conditions: dose 12 µg/g, time 25 hrs
Coagulation factor X [7] = target: T1, Coagulation factor X; experiment: Inhibition of human factor Xa using S-2765 as substrate preincubated with antithrombin for 3 mins followed by incubation with factor Xa for 2 mins and further incubated with substrate for 5 mins by absorbance based assay
Coagulation factor X [8] = target: T1, Coagulation factor X; experiment: Inhibition of human factor Xa using S-2765 as substrate at 7 to 3600 ng/ml preincubated with antithrombin for 3 mins followed by incubation with factor Xa for 2 mins and further incubated with substrate for 5 mins by absorbance based assay; conditions: dose 7-3600 ng/ml, time 10.0 min
[9] = Stability of compound assessed as heparanase-mediated compound degradation by measuring retention time at 20 ug incubated overnight by LC-MS analysis (reference value: 17 mins); format: physicochemical; conditions: dose 20 µg

T1 sequence (P00742 41-179 limits assumed): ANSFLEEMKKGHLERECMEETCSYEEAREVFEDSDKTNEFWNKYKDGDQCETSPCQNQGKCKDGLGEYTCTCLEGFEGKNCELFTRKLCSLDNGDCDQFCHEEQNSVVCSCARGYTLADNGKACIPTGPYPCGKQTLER
T1 sequence (P00742 235-488 limits assumed): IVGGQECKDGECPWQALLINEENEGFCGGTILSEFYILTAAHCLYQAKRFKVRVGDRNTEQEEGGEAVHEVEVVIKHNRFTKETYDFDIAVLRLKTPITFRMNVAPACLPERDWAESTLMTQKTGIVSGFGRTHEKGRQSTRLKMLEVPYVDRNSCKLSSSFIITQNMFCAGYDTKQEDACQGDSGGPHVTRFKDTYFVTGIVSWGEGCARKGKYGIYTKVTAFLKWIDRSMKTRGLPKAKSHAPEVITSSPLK

Row | Retention_time [3] [min] | fold change (FC) (Coagulation factor X [4]) | IC50 (Coagulation factor X [7]) [nM] | inhibition (Coagulation factor X [8]) | Retention_time [9] [min] | Compound | Activity (Mus musculus [1]) [mg] | Activity (Mus musculus [2]) [mg] | Activity (Mus musculus [5]) [mg] | Activity (Mus musculus [6]) [IU/ml]
1 | 15 | 3 | 177 |  |  | O=C(O)[C@H]1O[C@@H](O[C@H]2[C@H](O)[C@@H](NS(=O)(=O)O)[C@@H](O[C@@H]3[C@H](O)[C@@H](OS(=O)(=O)O)[C@H](O[C@H]4[C@H](OS(=O)(=O)O)[C@@H](NS(=O)(=O)O)[C@@H](O[C@H]5[C@H](O)[C@@H](OS(=O)(=O)O)[C@H](O[C@@H]6[C@H](O)[C@@H](NS(=O)(=O)O)[C@@H](O[C@H]7[C@H](O)[C@@H](O)[C@H](Oc8ccc([N+](=O)[O-])cc8)O[C@@H]7C(=O)O)O[C@@H]6COS(=O)(=O)O)O[C@@H]5C(=O)O)O[C@@H]4COS(=O)(=O)O)O[C@H]3C(=O)O)O[C@@H]2COS(=O)(=O)O)[C@H](O)[C@@H](O)[C@@H]1O | 18.8 | 13.9 | 143 | 0.55
2 |  |  |  | inactive | 22 | O=C(O)[C@H]1O[C@@H](Oc2ccc([N+](=O)[O-])cc2)[C@H](O)[C@@H](O)[C@@H]1O[C@H]1O[C@H](COS(=O)(=O)O)[C@@H](O[C@@H]2O[C@@H](C(=O)O)[C@H](O[C@H]3O[C@H](COS(=O)(=O)O)[C@@H](O[C@@H]4O[C@H](C(=O)O)[C@@H](O[C@H]5O[C@H](COS(=O)(=O)O)[C@@H](O)[C@H](O)[C@H]5NS(=O)(=O)O)[C@H](O)[C@H]4O)[C@H](OS(=O)(=O)O)[C@H]3NS(=O)(=O)O)[C@H](O)[C@H]2OS(=O)(=O)O)[C@H](O)[C@H]1NS(=O)(=O)O |  |  |  | 
